From patent US12504393B2, “Method and system for determining the progesterone-associated physiological state of lactating cows” (Yissum Research Development Company of the Hebrew …, priority 2020, dated 2025)
Entries after “also recorded” stand apart in the source; their conditions may differ.

Key:
Type in all cases: cell-based, cow
mammary epithelial cells [1] = test: Increasing or decreasing progesterone concentrations with or without VLDL in the culture medium: lipid droplet number and cellular phenotype
Description: To determine whether the effect of progesterone on lipid droplet size is mediated by the presence of VLDL, a b-factorial experiment was performed. MEC were cultured with increasing or decreasing progesterone concentrations in the presence or absence of VLDL in the culture medium. This study was aimed to provide indirect evidence of lipoprotein lipase (LPL) activity, acting on VLDL and providing the MEC with exogenous, preformed fatty acids. After 48 h of incubation, cells were fixed and stained with Nile red and intracellular lipid droplet size was determined. Cells were grown on glass cover slips, washed three times with phosphate buffered saline (PBS) and fixed with 4% paraformaldehyde in PBS for 20 min at room temperature. Then the cells were washed four times with PBS, stained with Nile red (200 nM) and incubated for 15 min. Cover slips were then washed three times with PBS and stained with DAPI for 5 min. Cover slips were washed four more times with PBS and mounted on a slide with fluorescent mounting medium (Dako North America Inc., Carpinteria, CA). The slides were visualized under an Olympus BX40 fluorescence microscope equipped with an Olympus DP73 digital camera using CellSens Entry software (version 1.7, Olympus). Lipid droplet diameter was measured using ImageJ software (version 1.48, NIH, Bethesda, MD). Lipid droplet diameter was divided into three size categories: small (<1 μm), medium (1 μm<x<2 μm) and large (>2 μm).

mammary epithelial cells [2] = test: Lipid droplet number and size in primary mammary epithelial cells incubated 24 h with fixed progesterone concentrations (Nile red/DAPI fluorescence microscopy)
Description: Epithelial cells were isolated for mammary biopsies according to the method described in [3]. Cells were incubated for 24 h with 0, 1, 5, and 20 ng/ml progesterone. Cells were then fixed with 4% paraformaldehyde and nucleus and lipid droplets were stained with Dapi and Nile red (Sigma Aldrich, Israel), respectively. Four slides were prepared for each treatment and were visualized with an Olympus BX40 fluorescence microscope equipped with an Olympus DP73 digital camera using CellSens Entry software version 1.7. The lipid droplets of 6-10 cells on each slide were counted and measured using ImageJ software. The experiment was repeated twice. For the in-vitro study, primary culture of MEC was performed according to a protocol established described in [1]. Briefly, mammary tissue was collected from lactating cows in a commercial slaughterhouse and immediately transferred to ice-cold growth medium with 1000 U/ml penicillin, 1 mg/ml streptomycin, 2.5 μg/ml amphotericin mixture, and 0.02 mg/ml heparin. Mammary tissue was digested in medium with 1 mg/ml collagenase, 1 mg/ml hyaluronidase and 0.02 mg/ml heparin, for 3 h at 37° C. After incubation, the suspension was filtered through a metal mesh (250 μm). Sediments were treated with trypsin-EDTA solution and filtered through a 100-μm cell strainer (BD Falcon, Bedford, MA). Then, the cells were grown in plastic culture dishes with DMEM/F12 supplemented with 10% (w-/v) fetal bovine serum, 100 U/ml penicillin, 100 μg/ml streptomycin, 0.25 μg/ml amphotericin B, 1 μg/ml insulin and […] hydrocortisone. The medium was changed every 48 h. To examine the effect of progesterone on MFG formation, secretion and size, the culture medium was supplemented with very low-density lipoprotein (VLDL) and progesterone at different concentrations (0, 1, 5 and 20 ng/ml). Progesterone concentrations were based on those found in the plasma during the luteal and follicular phases in vivo. After 24 h, cells were either fixed for lipid droplet size analysis (detailed below (or harvested with trypsin (0.05% w/v), sedimented by centrifugation, and washed with 0.9 gr/L NaCl. For lipid extraction and analysis, 150,000 MEC were plated in a 60-mm plastic dish. For Nile red fluorescence staining, 50,000 MEC were plated in a 6-well plate on glass cover slips. After 24 h incubation, the culture medium was replaced with DMEM/F12 without serum, containing 0.15% (w/v) free fatty acids-free BSA and insulin (1 μg/ml), hydrocortisone (0.5 μg/ml) and prolactin (1 μg/ml). Cells were incubated for 48 h to induce milk lipid and protein synthesis. Cells were grown on glass cover slips, washed three times with phosphate buffered saline (PBS) and fixed with 4% paraformaldehyde in PBS for 20 min at room temperature. Then the cells were washed four times with PBS, stained with Nile red (200 nM) and incubated for 15 min. Cover slips were then washed three times with PBS and stained with DAPI for 5 min. Cover slips were washed four more times with PBS and mounted on a slide with fluorescent mounting medium (Dako North America Inc., Carpinteria, CA). The slides were visualized under an Olympus BX40 fluorescence microscope equipped with an Olympus DP73 digital camera using CellSens Entry software (version 1.7, Olympus). Lipid droplet diameter was measured using ImageJ software (version 1.48, NIH, Bethesda, MD). Lipid droplet diameter was divided into three size categories: small (<1 μm), medium (1 μm<x<2 μm) and large (>2 μm).

mammary epithelial cells [3] = test: Fatty acid distribution between triglyceride and phospholipid fractions (TLC and gas chromatography) after 24 h progesterone
Description: (§1) Lipids were extracted by the Folch protocol. Briefly, each cell sample was incubated for 1 h with “Folch mixture” (chloroform:methanol, […] volumetric ratio). The organic phase was separated by addition of double-distilled water (DDW) and overnight incubation at 4° C. The upper phase was then removed, and the lower phase filtered through glass wool. The lower phase was evaporated under nitrogen and then dissolved in chloroform:methanol (3:97). Samples were kept at −20° C. until further analysis.
Lipid separation was performed by thin-layer chromatography and gas chromatography analysis. For the thin-layer chromatography, silica gel was spread on glass plates and activated at 105° C., 24 h before the analysis. After cooling, the cell samples, extracted by Folch protocol, were loaded into the plates along with triglyceride (Tg) and phospholipids (PL) standards. The plates were inserted into a tank with a mixture of petroleum ether, […] and acetic acid (8:2:1 volometric ratio) for 30 min, then sprayed with 0.05% v/v dichlorofluorescein in ethanol) and examined under UV light. The detected lipid segments were then separated from the plates into methylation mixture (5% v/v H2SO4 in methanol) for 1 h incubation at 65° C. Then, 1.5 ml petroleum-ether and 3 ml DDW were added to each sample. The upper phase was collected into a new vial and the organic solvent was evaporated with nitrogen. Then 100 μl petroleum-ether was added to each sample for fatty acid analysis in a gas chromatograph model 6890N, equipped with a flame-ionization detector and DB-23 capillary silica (0.25-μm film; Agilent Technology, Wilmington, DE). The analysis was performed according to a protocol established as described in [18]. Peaks were identified with Chemstation software (Agilent Technology). The concentrations of fatty acids are given as molar percentages of the total molar sum of the identified fatty acids. Fatty acids were classified according to chemical characteristics such as double bonds and carbon-chain length.

mammary epithelial cells [4] = test: Cellular triglyceride and phospholipid content and composition by HPLC-ELSD after 24 h progesterone
Description: To examine the effect of progesterone on MFG formation, secretion and size, the culture medium was supplemented with very low-density lipoprotein (VLDL) and progesterone at different concentrations (0, 1, 5 and 20 ng/ml). Progesterone concentrations were based on those found in the plasma during the luteal and follicular phases in vivo. After 24 h, cells were either fixed for lipid droplet size analysis (detailed below (or harvested with trypsin (0.05% w/v), sedimented by centrifugation, and washed with 0.9 gr/L NaCl.
For lipid extraction and analysis, 150,000 MEC were plated in a 60-mm plastic dish. For Nile red fluorescence staining, 50,000 MEC were plated in a 6-well plate on glass cover slips. After 24 h incubation, the culture medium was replaced with DMEM/F12 without serum, containing 0.15% (w/v) free fatty acids-free BSA and insulin (1 μg/ml), hydrocortisone (0.5 μg/ml) and prolactin (1 μg/ml). Cells were incubated for 48 h to induce milk lipid and protein synthesis.
as §1
High-pressure liquid chromatography (HPLC) was performed in an HPLC 1200 (Agilent Technology) equipped with evaporative light-scattering detector. Tg, cholesterol and PL were identified using external standards (Sigma Aldrich). Quantification was performed against external standard curves and expressed as μg/106 live cells or as weight % of the total PL (μg) in the sample. The number of live cells was determined with a hemocytometer after Trypan blue staining.

mammary epithelial cells [5] = test: Lipid droplet number and size in primary mammary epithelial cells exposed 48 h to increasing or decreasing progesterone concentrations
Description: The effect of progesterone concentration pattern during the estrous cycle on lipid droplet size was also tested. Primary mammary epithelial cells were exposed for 48 h to either increasing (0.75, 2.5 and 5 ng/ml) progesterone concentrations or decreasing (5, 2.5 and 0.75 ng/ml) progesterone concentrations. The concentrations were increased or decreased at specific times to reflect the progesterone pattern during the increasing and decreasing phases of the estrus cycle, i.e. the cells were exposed to increasing concentrations of 0.75, 2.5 and 5 ng/ml progesterone at 0, 17 and 28 h, respectively and cells were exposed to decreasing concentrations of 5, 2.5 and 0.75 ng/ml progesterone at 0, 28 and 34 h, respectively. Cells were then fixed and stained with nile-red. Four slides were prepared for each treatment and lipid droplets were counted and measured under fluorescence microscope. The experiment was repeated twice.
For the in-vitro study, primary culture of MEC was performed according to a protocol established described in [1]. Briefly, mammary tissue was collected from lactating cows in a commercial slaughterhouse and immediately transferred to ice-cold growth medium with 1000 U/ml penicillin, 1 mg/ml streptomycin, 2.5 μg/ml amphotericin mixture, and 0.02 mg/ml heparin. Mammary tissue was digested in medium with 1 mg/ml collagenase, 1 mg/ml hyaluronidase and 0.02 mg/ml heparin, for 3 h at 37° C. After incubation, the suspension was filtered through a metal mesh (250 μm). Sediments were treated with trypsin-EDTA solution and filtered through a 100-μm cell strainer (BD Falcon, Bedford, MA). Then, the cells were grown in plastic culture dishes with DMEM/F12 supplemented with 10% (w-/v) fetal bovine serum, 100 U/ml penicillin, 100 μg/ml streptomycin, 0.25 μg/ml amphotericin B, 1 μg/ml insulin and […] hydrocortisone. The medium was changed every 48 h.
To determine whether the absolute progesterone concentration or its pattern (i.e., increasing or decreasing) affects MFG, cells were treated for 48 h with increasing doses of progesterone: 0.75, 2.5 and 5 ng/ml. The culture medium was replaced after 11, 17, and 20 h, respectively, aimed to mimic the in-vivo luteal phase. The decreasing phase consisted of exposure to 5, 2.5 and 0.75 ng/ml progesterone. Culture medium was replaced after 8, 12 and 28 h, respectively, to mimic the follicular phase.
Cells were grown on glass cover slips, washed three times with phosphate buffered saline (PBS) and fixed with 4% paraformaldehyde in PBS for 20 min at room temperature. […] The slides were visualized under an Olympus BX40 fluorescence microscope equipped with an Olympus DP73 digital camera using CellSens Entry software (version 1.7, Olympus). Lipid droplet diameter was measured using ImageJ software (version 1.48, NIH, Bethesda, MD). […]

SMILES: CC(=O)[C@H]1CC[C@H]2[C@@H]3CCC4=CC(=O)CC[C@]4(C)[C@H]3CC[C@]12C [progesterone]
- differences in lipid droplet number and cellular phenotype between increasing and decreasing progesterone (mammary epithelial cells [1]; absence of VLDL): no differences were found
- increase in MEC with large lipid droplets (>1 μm) (mammary epithelial cells [1]; decreasing progesterone concentration model with VLDL, P<0.0001): 4 fold
- increase in proportion of MEC with small lipid droplets (<1 μm) (mammary epithelial cells [1]; increasing progesterone concentration model with VLDL): 2.4 fold
- average number of lipid droplets per field (mammary epithelial cells [1]; increasing progesterone concentration with VLDL vs other treatments, FIG. 20B, P<0.0001): Highest number of lipid droplets
- proportion of large droplets (>1 μm) (mammary epithelial cells [2]; 0, 1 or 20 ng/ml progesterone, 24 h): ≤ 20%
- proportion of droplets larger than 1 μm (mammary epithelial cells [2]; 5 ng/ml progesterone, 24 h): over 40%
- number of lipid droplets (mammary epithelial cells [2]; 5 ng/ml progesterone, 24 h, vs control): did not differ from the control
- rate of large droplets (>1 μm) (mammary epithelial cells [2]; 20 ng/ml progesterone, 24 h): 6.5%
- number of large lipid droplets (>1 μm) per cell (mammary epithelial cells [2]; 1 and 5 ng/ml progesterone, 24 h, relative to control (0 ng/ml), FIG. 3): higher number of large lipid droplets
- proportion of large lipid droplets (X≥1 μm) (mammary epithelial cells [2]; 1 and 5 ng/ml relative to 20 ng/ml progesterone, FIG. 4, P<0.0001): higher
- number of lipid droplets (mammary epithelial cells [2]; 1 or 20 ng/ml progesterone, 24 h, vs control (no progesterone), P<0.0001): 3.5 fold
- distribution of stearic acid (C18:0) between Tg and PL (mammary epithelial cells [3]; 1 ng/ml progesterone): higher in the PL compartment; also recorded: found primarily in the membrane
- distribution of stearic acid between Tg and membrane (mammary epithelial cells [3]; 5 ng/ml progesterone): mostly incorporated into the Tg
- concentration of lignoceric acid (C24:0), Tg vs PL (mammary epithelial cells [3]; 5 ng/ml progesterone, P<0.05): higher in the PL compartment
- membrane PL composition (PI, PE, PS, PC, SM) (mammary epithelial cells [4]; 0, 1, 5 and 20 ng/ml progesterone, 24 h): did not affect
- concentration of Tg (cellular triglyceride content) (mammary epithelial cells [4]; 0, 1, 5 and 20 ng/ml progesterone, 24 h, FIG. 17A): not affected by progesterone
- increase in concentration of the measured PL (mammary epithelial cells [4]; 1 ng/ml compared to 0, 5 and 20 ng/ml progesterone, 24 h, P<0.05): approximately 1.3 fold
- PL amount (mammary epithelial cells [4]; 5 ng/ml progesterone, 24 h, P<0.05): tended to decrease
- PC concentration (elevated) (mammary epithelial cells [4]; progesterone 24 h, apparently the 1 ng/ml treatment, P<0.05): 20 μg/106 cells
- proportion of large lipid droplets (>2 μm) of the total number of lipid droplets (mammary epithelial cells [5]; decreasing ('down') compared to increasing ('up') progesterone concentrations, 48 h, FIG. 6, P=0.03): 2 fold
- increase in the number of lipid droplets (mammary epithelial cells [5]; increasing (0.75, 2.5, 5 ng/ml, 'up') relative to decreasing (5, 2.5, 0.75 ng/ml, 'down') progesterone, 48 h, FIG. 5, P<0.0001): 5.5 fold
- increase in the large lipid droplets (mammary epithelial cells [5]; increasing progesterone concentration 'compared to the increasing progesterone pattern' (so in the source), P<0.0001): 3 fold
- large lipid droplet phenotype (cells with droplets x>1 μm) (mammary epithelial cells [5]; increasing vs decreasing progesterone, FIG. 19C): only visualized in cells treated with increasing progesterone levels
